# Data: patent US20230117606A1, “COMPOSITIONS AND METHODS FOR THE TREATMENT OF INTRACELLULAR BACTERIAL INFECTIONS” (Endolytix Technology, Inc., priority 2020, published 2023)
# Test system: M. abscessus
# Experiment: Cell growth assay of M. abscessus with ABIα and antibiotic, Fractional Inhibitory Concentration (FIC) index
# Format: cell-based, Mycobacterium abscessus
# Conditions: antibiotic in combination with ABIα; FIG. 5
row,SMILES,effect by FIC index on attenuation of M. abscessus growth
1,C[C@@H](O)[C@H]1C(=O)N2C(C(=O)[O-])=C(SC3Cn4cnc[n+]4C3)[C@H](C)[C@H]12 (stereo partly drawn) [biapenem],synergistic effects
2,CO[C@@]1(NC(=O)Cc2cccs2)C(=O)N2C(C(=O)O)=C(COC(N)=O)CS[C@@H]21 [cefoxitin],synergistic effects
3,NCC[C@H](O)C(=O)N[C@@H]1C[C@H](N)[C@@H](O[C@H]2O[C@H](CN)[C@@H](O)[C@H](O)[C@H]2O)[C@H](O)[C@H]1O[C@H]1O[C@H](CO)[C@@H](O)[C@H](N)[C@H]1O [amikacin],synergistic effects
